Reference: patent publication US11660279B2, “Therapeutic agents for treating restless leg syndrome” (INTRABIO LTD, priority 2018, dated 2023)

Legend:
[1] = system: patients with restless leg syndrome (RLS); test: International Restless Legs Syndrome Rating Scale score (IRLS) in patient case studies; type: in vivo, human; set-up: key: IRLS score, 0 (no symptoms) to 40; >30 very severe
Source text: RLS severity varies and can be measured using one or more of several scales. A widely reported rating scale known as the International Restless Legs Syndrome Study Group Rating Scale (“IRLS”) was developed by the International Restless Legs Syndrome Study Group (“IRLSSG”) (Walters et al., Validation of the 15 International Restless Legs Syndrome Study Group rating scale for restless legs syndrome. Sleep medicine. 2003 Apr 01; 4(2)1 21-32). The IRLS is a 10-item scale with scores ranging from 0 (no symptoms) to 40. Scores>30 are considered very severe, severe (Score 21-30), moderate (scores 11-20) and […], mild. Use of the scale is common for clinical assessment, research and therapeutic trials with RLS.
Serum creatine kinase activity was only mildly elevated at up to 400 IU/L. The patient was evaluated using the RLS diagnostic index (RLS-DI) (see Walters et al., Sleep Med 2003; 4(2):121-132;). The patient's International Restless Legs Syndrome Rating Scale score (IRLS) was 36, and thus a severe RLS was diagnosed. The patient was started on therapy with acetyl-DL-leucine at a dose of 3 g per day for the first week, followed by a dose of 5 g per day for the second week onwards. Within 14 days on acetyl-DL-leucine, the IRLS dropped to 26, and after another 5 weeks, the IRLS declined to 9. […] Re-introduction of the treatment re-declined the score to 8 after 2 weeks. Continuation of treatment over more than 22 weeks stabilized the IRLS score at 8.
(§1) The patient in this case study was a person showing proximal weakness of the lower limb. […] Upon consultation, they reported no sensory symptoms but complained of a restless leg syndrome at night and during resting periods of the day, occurring over the course of the last eight years. […] Serum creatine kinase activity was mildly elevated at 300 IU/L. Iron measurements and all additional lab investigations were normal. The patient was evaluated using the RLS-DI and the patient's IRLS was 32, and thus a moderate to severe RLS was diagnosed. The patient was started on therapy with acetyl-DL-leucine at a dose of 3 g per day for the first week, followed by a dose of 5 g per day for the second week onwards. Within 14 days on acetyl-DL-leucine, the IRLS dropped to 22, and after another 5 weeks, the IRLS declined to 7. Continuation of treatment over more than 28 weeks stabilized the IRLS score at 8.
(§2) The patient in this case study was a person showing mild proximal weakness of the upper and lower limbs slowly progressive. The patient had been diagnosed (genetically confirmed) with McArdle myopathy about 16 years ago. Upon consultation, they reported no sensory symptoms but complained about a severe fatigue and reduced stamina. The patient further reported a restless leg syndrome at night and during resting periods of the day, occurring over the course of the last 12 years. […] Serum creatine kinase activity was mildly elevated at 200 IU/L; however, the patient had 5 episodes of rhabdomyolysis during the past 20 years. Repeated iron measurements and all additional lab investigations were normal. The patient was evaluated using the RLS-DI and the patient's IRLS was 34, and thus a severe RLS was diagnosed. The patient was started on therapy with acetyl-DL-leucine at a dose of 3 g per day for the first week, followed by a dose of 5 g per day for the second week onwards. Within 21 days on acetyl-DL-leucine, the IRLS dropped to 20, and after another 10 weeks, the IRLS declined to 10. Continuation of treatment over more than 30 weeks stabilized the IRLS score at 10. In addition, the patient's fatigue declined (Fatigue Severit Scale: 9 (minimum) to 63 (maximum)) from 53 to 28.
The patient in this case study was a person showing symptoms of RLS and with RLS of unknown etiology. […]

[2] = system: patient with RLS and McArdle myopathy; test: Fatigue Severity Scale in patient case study; type: in vivo, human; conditions: Patient 3; scale 9 (minimum) to 63 (maximum); declined from 53
Source text: as §2

[3] = system: patients with cerebellar ataxia / Niemann-Pick Type C; conditions: cited from earlier work
[4] = system: patients with restless leg syndrome (RLS); test: Symptom relief of RLS by pre-treatment (patient history); type: in vivo, human
Procedure: as §1, §2
The patient in this case study was a person showing symptoms of RLS and with RLS of unknown etiology. Upon consultation, they reported no sensory symptoms but complained of a restless leg syndrome at night and during resting periods of the day, occurring over the course of the at least 15 years. […] Iron measurements and all additional lab investigations were normal. The patient was evaluated using the RLS-DI and the patient's IRLS was 32, and thus a moderate to severe RLS was diagnosed. The patient was started on therapy with acetyl-DL-leucine at a dose of 3 g per day for the first week, followed by a dose of 5 g per day for the second week onwards. Within 14 days on acetyl-DL-leucine, the IRLS dropped to 8, and after another 2 weeks, the IRLS declined to 6. Continuation of treatment over more than 4 weeks stabilized the IRLS score at 6.

[5] = system: rat model of an acute unilateral labyrinthectomy; conditions: Zwergal 2016, Gunther 2015; cited from earlier work
[6] = Patient 2, before acetyl-DL-leucine
[7] = Patient 3, before acetyl-DL-leucine
[8] = Patient 4, before acetyl-DL-leucine

**Q.** With CC(=O)NC(CC(C)C)C(=O)O (racemic) [acetyl-DL-leucine] as the molecule, how does the IRLS ([1]; Patient 1, baseline 36, after another 5 weeks on 5 g per day) read?
**A.** 9

**Q.** And the IRLS ([1]; Patient 1, baseline IRLS 36, 3 g per day first week then 5 g per day, within 14 days)?
**A.** 26

**Q.** What about the IRLS ([1]; Patient 1, after interruption of 4 weeks of the treatment after week 12) of the same molecule?
**A.** 28

**Q.** What about the IRLS ([1]; Patient 1, continuation of treatment over more than 22 weeks) of the same molecule?
**A.** 8

**Q.** And the IRLS ([1]; Patient 1, re-introduction of the treatment, after 2 weeks)?
**A.** 8

**Q.** And the IRLS ([1]; Patient 2, baseline 32, after another 5 weeks)?
**A.** 7

**Q.** And the IRLS ([1]; Patient 2, baseline IRLS 32, 3 g per day first week then 5 g per day, within 14 days)?
**A.** 22

**Q.** And the IRLS ([1]; Patient 2, continuation of treatment over more than 28 weeks)?
**A.** 8

**Q.** And the IRLS ([1]; Patient 3, baseline 34, after another 10 weeks)?
**A.** 10

**Q.** And the IRLS ([1]; Patient 3, baseline IRLS 34, 3 g per day first week then 5 g per day, within 21 days)?
**A.** 20

**Q.** And the IRLS ([1]; Patient 3, continuation of treatment over more than 30 weeks)?
**A.** 10

**Q.** What about the IRLS ([1]; Patient 4, baseline 32, after another 2 weeks) of the same molecule?
**A.** 6

**Q.** What about the IRLS ([1]; Patient 4, baseline IRLS 32, 3 g per day first week then 5 g per day, within 14 days) of the same molecule?
**A.** 8

**Q.** And the IRLS ([1]; Patient 4, continuation of treatment over more than 4 weeks)?
**A.** 6

**Q.** What about the “Fatigue Severit Scale” value [2] of the same molecule?
**A.** 28

**Q.** What about the “brain metabolism (PET)” value ([3]; PET study in patients with ataxia, Becker-Bense et al. (2015)) of the same molecule?
**A.** increased metabolism in the midbrain and lower brainstem in responders

**Q.** And the cerebellar ataxia benefit ([3]; another case series, Pelz et al. (2015))?
**A.** did not find benefit

**Q.** And the cerebellar ataxia symptoms ([3]; case series with cerebellar patients, Strupp et al. (2013))?
**A.** symptomatic improvement of cerebellar ataxia

**Q.** And the ataxia symptoms ([3]; one-month study, 12 patients with Niemann-Pick Type C, Bremova et al. (2015))?
**A.** symptomatic improvement of ataxia was shown

**Q.** What about the temporal gait variability ([3]; quantitative gait analysis, patients with cerebellar ataxia, Schniepp et al. (2015)) of the same molecule?
**A.** improved temporal gait variability

**Q.** For N[C@@H](Cc1ccc(O)c(O)c1)C(=O)O [L-dopa], which “RLS symptom relief by pre-treatment” value [4, 6] is on record?
**A.** without sustained symptom relief

**Q.** What about the “RLS symptom relief by pre-treatment” value [4, 7] of the same molecule?
**A.** without sustained symptom relief

**Q.** What about the “RLS symptom relief by pre-treatment” value [4, 8] of the same molecule?
**A.** without sustained relief

**Q.** For CC(=O)N[C@@H](CC(C)C)C(=O)O [N-acetyl-L-leucine], which postural compensation [5] is on record?
**A.** significant effect

**Q.** For CC(C)C[C@H](CN)CC(=O)O [pregabaline], which “RLS symptom relief by pre-treatment” value [4, 6] is on record?
**A.** without sustained symptom relief

**Q.** And the “RLS symptom relief by pre-treatment” value [4, 7]?
**A.** without sustained symptom relief

**Q.** What about the “RLS symptom relief by pre-treatment” value [4, 8] of the same molecule?
**A.** without sustained relief
